Reference: patent publication US20220033405A1, “PHARMACEUTICAL COMPOSITION FOR PREVENTING OR TREATING CANCER CONTAINING PLK1 INHIBITOR AS ACTIVE INGREDIENT” (NATIONAL CANCER CENTER, priority 2018, published 2022)

Assays:
[1] = test system: MDA-MB-468 cells; assay: Cancer cell growth inhibition (DAPI nuclei count), breast cancer line; format: cell-based; details: treated 1 and 3 days after attachment
Procedure: For this purpose, experiments were performed using liver cancer, breast cancer, hematologic cancer, cervical cancer, and prostate cancer cell lines, a murine liver cancer cell line HEPA 1-6 and a breast cancer cell line MDA-MB-468 were cultured in a DMEM medium supplemented with 10% fetal bovine serum (FBS) and 1% penicillin/streptomycin, the other cell lines were cultured in a RPMI1640 medium supplemented with the same additives, and the cell lines were used in the experiment.
To examine the ability of the compound to inhibit the growth of the breast cancer cell line, the compounds was treated at each indicated μM concentration 1 and 3 days after cell attachment, and the control was treated with a 0.1% solvent (DMSO). […] After the cells were additionally rinsed once with PBS, cells stained with DAPI were photographed by Cytation 3, and the resulting images were analyzed with Gen5 software (Biotek, USA). Meanwhile, cells that grew in a floating manner without being attached to the culture plate were treated with a 4% paraformaldehyde solution, reacted at room temperature for 10 minutes to fix the cells, and then photographed in a bright field by Cytation3, and the resulting images were analyzed by Gen5 software (Biotek, USA). […]

[2] = test system: HepG2 orthotopic xenograft; assay: Liver cancer orthotopic xenograft model (HepG2), 19 injections; format: in vivo, BalB/c nude mice; details: M2 9.1 mg/kg
Procedure: 5×10^6 HepG2 cells, which are a hepatocellular carcinoma cell line, were injected into the back skin of BalB/c nude mice, and when a sufficient cancer tissue was formed about 3 weeks later, the tissue was removed, uniformly cut into 1 mm^3, and transplanted into the right median lobe of the liver by excising the abdomen within 1 cm.
The doses of 9.1 mg/kg of M2 and 1 mg/kg of BI2536 were selected based on the present inventor's previous in vitro experiments on HCC cells. Administration began 7 days after cell injection, and an equivalent amount of DMSO for the highest concentration of drug was used as a solvent control for each experiment. Each drug was injected a total of 19 injections based on 5 times/week.

[3] = test system: SNU-449; assay: Cell cycle by flow cytometry, phospho-histone H3 (Ser10) staining; format: cell-based; details: M2 20, 40, 80 μM, BI2536 20 nM
Procedure: Flow cytometry equipment was used to confirm the effect on the cell cycle in the case of treatment with Compound 2 (M2). SNU-449, which is one of the liver cancer cell lines, were treated with Compound 2 (M2) at each of concentrations of 20, 40, and 80 μM after 1 day and 3 days, and were harvested after another 2 days.
Furthermore, it was intended to more specifically stain a cell population that stopped in the metaphase of cell division using a phospho-histone H3 (Ser10) antibody capable of specifically staining only the cells that stopped in the metaphase of cell division. As a positive control, cells were treated with BI2536 known as a PLK1 kinase inhibitor at 20 nM and used to observe cells in the metaphase of cell division and an increase in the G2/M phase.

[4] = test system: JIMT1 human breast cancer cells; assay: Cancer cell growth inhibition, M2 variants in JIMT1; format: cell-based
Procedure: (§1) To examine the ability of the compound to inhibit the growth of the breast cancer cell line, the compounds was treated at each indicated μM concentration 1 and 3 days after cell attachment, and the control was treated with a 0.1% solvent (DMSO). After another two days, the cell lines that were attached to the culture plate and grew were rinsed with 1×PBS and treated with 4% paraformaldehyde at room temperature for 10 minutes to fix the cells. Then, after cells were rinsed twice with PBS, the fixed cells were treated with a 0.5% Triton X-100 solution and reacted at room temperature for 15 minutes, rinsed another three times with PBS, and then treated with a DAPI reagent at 0.5 μg/ml, and reacted at 37° C. for 10 minutes to stain the cell nuclei. After the cells were additionally rinsed once with PBS, cells stained with DAPI were photographed by Cytation 3, and the resulting images were analyzed with Gen5 software (Biotek, USA). Meanwhile, cells that grew in a floating manner without being attached to the culture plate were treated with a 4% paraformaldehyde solution, reacted at room temperature for 10 minutes to fix the cells, and then photographed in a bright field by Cytation3, and the resulting images were analyzed by Gen5 software (Biotek, USA).

[5] = test system: HepG2 cell; assay: Apoptosis by annexin V-FITC / PI flow cytometry; format: cell-based; details: HepG2, 3 days; M2 20 or 100 μM; BI2536 20 or 100 nM
Procedure: To analyze the pattern of apoptosis by exposure to M2, HepG2 cell, a hepatocellular carcinoma cell line, were treated with 20 or 100 μM M2 and 20 or 100 nM BI2536 for 3 days. The apoptosis was detected by annexin V-fluorescein isothiocyanate (annexin V-FITC) and propidium iodide (PI) staining of necrotic and apoptosis cells. First, cells were harvested and washed once with PBS. The cells were then resuspended in a 100 μl binding buffer containing 4 μl of Annexin V (BD, 51-65874X) and PI (BD, 51-66211E). The cells were stained at 37° C. for 15 minutes in the dark and then analyzed using FACSan (BD, San Jose, Calif.). Data was analyzed using CELLQuest software (BD).

[6] = test system: SNU449 human liver cancer cells; assay: Reactivity of M2 variants in SNU449; format: cell-based
Procedure: as §1
(§2) To analyze the ability to inhibit the growth of liver cancer cell lines, 6.6×10^3 HepG2 cells per well, 1×10^3 cells of each of Hep3B, SNU-475, and SNU-449 per well, and 2×10^3 SNU-387 cells per well were aliquoted in a 96-well plate, cultured in the same manner as described above, treated with Compound 2 (M2), Compound 3 (M4), Compound 4 (M21), Compound 5 (M23), and Compound 6 (M25), and then the ability to inhibit the growth of cells was analyzed.

[7] = test system: HepG2 human liver cancer cells; assay: Reactivity of M2 variants in HepG2; format: cell-based
Procedure: as §1, §2

[8] = test system: HepG2 orthotopic xenograft; assay: Liver cancer orthotopic xenograft model (HepG2), 5 and 20 mg/kg; format: in vivo, BalB/c nude mice; details: M2 5 and 20 mg/kg i.p. once every two days, 10 treatments for 3 weeks
Procedure: Another experiment was performed on the same liver cancer cell line by varying the experimental method. 5×10^6 HepG2 cells were injected into the backs of BalB/c nude mice, and when a sufficient cancer tissue was formed about 3 weeks later, the tissue was removed, uniformly cut into 1 mm^3, and transplanted into the right median lobe of the liver by excising the abdomen within 1 cm.
Small spots were confirmed on the MRI image about 10 days after transplanting the liver cancer tissue into 20 BalB/C nude mice by the above method, so that rodents with well-established liver cancer were divided into 3 groups (about 50 to 60%) (see FIG. 21A), a control and a hit (M2) material at 5 mg/kg and 20 mg/kg were injected into the abdominal cavity once every two days using less than 1.5% DMSO as a solvent (vehicle), and once a week, MRI images were used to select (follow up) rodents with constant tissue growth. Then, in a state in which the rapidly growing cancer tissue was 1 cm or less, the cancer tissue was observed after sacrificing the mice (10 treatments for 3 weeks).

[9] = test system: NCAPG2 in HEK293 cell line; assay: Staining of NCAPG2 in chromosome arm and kinetochore; format: cell-based; details: HEK293, 50 uM, 24 hours, compared to the control

Cn1c2nc(=O)[nH]c(=O)c-2nc2ccccc21 [Compound 2, 10-methyl-2H,3H,4H,10H-benzo[g]pteridine-2,4-dione]
number of cells [1]: the number of cells was remarkably reduced in proportion to the treatment concentration | progression of the HCC xenograft calculated by the growth inhibition index ([2]; BI2536 1 mg/kg, 19 injections): suppressed the progression of the HCC xenograft | growth of tumor cells (macroscopic morphology, MRI) ([2]; BI2536 1 mg/kg, 19 injections, 5 times/week): the growth of tumor cells was suppressed | mitotic index ([2]; histological staining, compared to the control): decreased | proportion of polyploid cells [3]: not increased at all the treated concentrations | proportion of phospho-histone H3-positive cells ([3]; compared to CT): decreased | number of cancer cells [4]: remarkably reduced the number of cancer cells in a dose-dependent manner | apoptosis cells [5]: apoptosis cells were increased | apoptosis with increasing dose [5]: apoptosis was increased in a dose-dependent manner | number of cancer cells [6]: the number of cancer cells was remarkably reduced in a dose-dependent manner | areas of liver cancer cells [7]: remarkably reduced in a dose-dependent manner | volume of the cancer tissue [8]: reduced remarkably as the dose of M2 was increased | weight of the cancer tissue [8]: reduced remarkably as the dose of M2 was increased | degree of staining of NCAPG2 in the chromosome arm and kinetochore [9]: reduced
